IC50 data for 27 molecules are collected here from patent publication US10696674B2, “Spirolactams as inhibitors of ROCK” (BRISTOL-MYERS SQUIBB COMPANY, priority 2016, dated 2020).

Each structure is given as a SMILES string.

Chain of ROCK2 (O75116 whole entry, species assumed): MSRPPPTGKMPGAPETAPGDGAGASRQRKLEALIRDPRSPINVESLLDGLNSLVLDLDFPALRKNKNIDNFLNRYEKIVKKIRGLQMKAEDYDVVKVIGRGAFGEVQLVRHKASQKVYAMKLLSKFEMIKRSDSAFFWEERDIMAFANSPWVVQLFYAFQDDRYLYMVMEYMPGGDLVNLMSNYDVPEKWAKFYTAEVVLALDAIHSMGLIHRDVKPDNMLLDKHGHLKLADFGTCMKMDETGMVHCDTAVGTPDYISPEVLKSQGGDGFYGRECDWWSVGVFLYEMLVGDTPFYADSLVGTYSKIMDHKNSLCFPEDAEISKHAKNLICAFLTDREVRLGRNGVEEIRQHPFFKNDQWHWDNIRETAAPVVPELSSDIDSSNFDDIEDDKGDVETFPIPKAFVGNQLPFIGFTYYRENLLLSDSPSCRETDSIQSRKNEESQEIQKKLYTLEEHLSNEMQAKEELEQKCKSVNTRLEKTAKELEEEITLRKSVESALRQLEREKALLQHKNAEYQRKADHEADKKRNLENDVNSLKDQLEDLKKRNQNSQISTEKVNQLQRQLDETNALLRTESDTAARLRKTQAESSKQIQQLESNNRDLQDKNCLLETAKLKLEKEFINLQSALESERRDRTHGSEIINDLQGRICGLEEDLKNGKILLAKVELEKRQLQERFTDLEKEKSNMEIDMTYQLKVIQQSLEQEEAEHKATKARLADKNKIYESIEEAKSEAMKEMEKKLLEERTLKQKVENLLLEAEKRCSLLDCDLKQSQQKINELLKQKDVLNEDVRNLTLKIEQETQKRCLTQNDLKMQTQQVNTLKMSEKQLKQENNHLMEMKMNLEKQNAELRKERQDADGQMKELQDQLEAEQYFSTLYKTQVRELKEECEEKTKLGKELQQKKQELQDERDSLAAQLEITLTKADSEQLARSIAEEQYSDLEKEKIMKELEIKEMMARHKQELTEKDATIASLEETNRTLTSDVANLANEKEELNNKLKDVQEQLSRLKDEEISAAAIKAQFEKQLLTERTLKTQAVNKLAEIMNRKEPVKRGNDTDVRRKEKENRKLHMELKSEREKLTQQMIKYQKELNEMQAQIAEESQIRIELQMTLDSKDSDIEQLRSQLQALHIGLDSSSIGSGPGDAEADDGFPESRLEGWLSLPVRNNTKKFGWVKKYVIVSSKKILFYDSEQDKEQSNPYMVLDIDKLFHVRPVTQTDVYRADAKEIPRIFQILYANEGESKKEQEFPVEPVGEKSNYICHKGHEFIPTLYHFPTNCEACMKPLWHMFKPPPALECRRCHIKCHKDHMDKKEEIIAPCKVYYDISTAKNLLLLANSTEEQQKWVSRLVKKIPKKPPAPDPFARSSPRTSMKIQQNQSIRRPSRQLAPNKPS

This assay concerns the target ROCK2 (Homo sapiens, UniProt O75116). In words: ROCK2 assay (Caliper LABCHIP peptide phosphorylation). The note with it: 5 μM ATP, 1.5 μM peptide substrate. It is filed as biochemical. As for the experimental part: The effectiveness of compounds of the present invention as ROCK inhibitors can be determined in a 30 μL assay containing 20 mM HEPES, pH 7.5, 20 mM MgCl2, 0.015% Brij-35, 4 mM DTT, 5 μM ATP and 1.5 μM peptide substrate (FITC-AHA-AKRRRLSSLRA-OH) (SEQ ID NO.1). Compounds were dissolved in DMSO so that the final concentration of DMSO was <2%, and the reaction was initiated with Rho kinase variants. After incubation, the reaction was terminated by the addition of EDTA and the phosphorylated and non-phosphorylated peptides separated using a LABCHIP® 3000 Reader (Caliper Life Sciences). […] Compounds were tested in dose-response format, and the inhibition of kinase activity was calculated at each concentration of compound. The inhibition data were fit using a curve-fitting program to determine the IC50; i.e., the concentration of compound required to inhibit 50% of kinase activity.
Representative Examples were tested in the ROCK2 assay described above and found having ROCK2 inhibitory activity. The ranges of the ROCK2 IC50 values are as follows: ROCK2 IC50: ++++ (<3 nM) +++ (3-30 nM) ++ (30-300 nM) + (300-2000 nM)
With `O=C1N(c2ccc(-c3ccncc3)cc2)CCC12Cc1ccccc1O2` (stereo not drawn) [Example 46, 1′-(4-(Pyridin-4-yl)phenyl)-3H-spiro[benzofuran-2,3′-pyrrolidin]-2′-one], the IC50 (commonly the concentration at which inhibition is half-maximal) was 3 to 30 nM.

For `COc1ccc2c(c1)CC1(CCN(c3ccc(-c4cn[nH]c4)cc3)C1=O)O2` (single isomer, unassigned) [Example 25, 1′-(4-(1H-Pyrazol-4-yl)phenyl)-5-methoxy-3H-spiro[benzofuran-2,3′-pyrrolidin]-2′-one], the IC50 lay in the range of 30 to 300 nM.

`O=C1N(c2ccc(-c3cn[nH]c3)cc2)CCC12Cc1cc(F)ccc1N2` (racemic) [Example 7, 1′-(4-(1H-Pyrazol-4-yl)phenyl)-5-fluorospiro[indoline-2,3′-pyrrolidin]-2′-one]: the IC50 is 3 to 30 nM.

`COc1ccc2c(c1)CC1(CCN(c3ccc(-c4cn[nH]c4)c(OC)n3)C1=O)C2` (single isomer, unassigned) [Example 20, 5-Methoxy-1′-(6-methoxy-5-(1H-pyrazol-4-yl)pyridin-2-yl)-1,3-dihydrospiro[indene-2,3′-pyrrolidin]-2′-one]: the concentration for half-maximal inhibition (IC50) was less than 3 nM.

Molecule `O=C1N(c2ccc(-c3cn[nH]c3)cc2)CCC12Cc1ccccc1N2` (single isomer, unassigned) [Example 2, 1′-(4-(1H-Pyrazol-4-yl)phenyl)spiro[indoline-2,3′-pyrrolidin]-2′-one] gave a concentration for half-maximal inhibition (IC50) of less than 3 nM.

Take `O=C1N(c2ccc(-c3cn[nH]c3)cc2)CCC12CCc1ccccc1N2` (stereo not drawn) [Example 47, 1-(4-(1H-pyrazol-4-yl)phenyl)-3′,4′-dihydro-1 ^1H-spiro[pyrrolidine-3,2′-quinolin]-2-one]: the half-maximal inhibitory concentration (IC50) is less than 3 nM.

Take `COc1ccc2c(c1)N(C)C1(CCN(c3ccc(-c4cn[nH]c4)cc3)C1=O)C2` (stereo not drawn) [Example 14, 1′-(4-(1H-Pyrazol-4-yl)phenyl)-6-methoxy-1-methylspiro[indoline-2,3′-pyrrolidin]-2′-one]: the IC50 lay in the range of 30 to 300 nM.

Turning to `O=C1N(c2ccc(-c3cn[nH]c3)cc2)CCC12Cc1ccc(OCC3CC3)cc1N2` (single isomer, unassigned) [Example 43, 1′-(4-(1H-Pyrazol-4-yl)phenyl)-6-(cyclopropylmethoxy)spiro[indoline-2,3′-pyrrolidin]-2′-one], the IC50 lay within 30 to 300 nM.

As for `Cc1cccc2c1CC1(CCN(c3ccc(-c4cn[nH]c4)cc3)C1=O)N2` (stereo not drawn) [Example 27, 1′-(4-(1H-Pyrazol-4-yl)phenyl)-4-methylspiro[indoline-2,3′-pyrrolidin]-2′-one], the 50% inhibitory concentration (IC50) was in the range of 3 to 30 nM.

`COc1nc(N2CCC3(Cc4ccc(F)cc4C3)C2=O)ccc1-c1cn[nH]c1` (single isomer, unassigned) [Example 17, 5-Fluoro-1′-(6-methoxy-5-(1H-pyrazol-4-yl)pyridin-2-yl)-1,3-dihydrospiro[indene-2,3′-pyrrolidin]-2′-one]: the IC50 is less than 3 nM.

`O=C1N(c2ccc(-c3ccncc3)cc2)CCC12Cc1ccccc1N2` (stereo not drawn) [Example 45, 1′-(4-(Pyridin-4-yl)phenyl)spiro[indoline-2,3′-pyrrolidin]-2′-one] showed an IC50 of 3 to 30 nM.

Molecule `O=C1N(c2ccc(-c3cn[nH]c3)cc2)CCC12Cc1ccccc1C2` [Example 11, 1′-(4-(1H-Pyrazol-4-yl)phenyl)-1,3-dihydrospiro[indene-2,3′-pyrrolidin]-2′-one] showed a half-inhibitory concentration (IC50) of 3 to 30 nM.

With `COc1cc(F)c2c(c1)NC1(CCN(c3ccc(-c4cn[nH]c4)cc3)C1=O)C2` (single isomer, unassigned) [Example 40, 1′-(4-(1H-Pyrazol-4-yl)phenyl)-4-fluoro-6-methoxyspiro[indoline-2,3′-pyrrolidin]-2′-one], the IC50 was less than 3 nM.

Molecule `COc1cc(F)c2c(c1)NC1(CCN(c3ccc(-c4cn[nH]c4)cc3)C1=O)C2` (single isomer, unassigned) [Example 39, 1′-(4-(1H-Pyrazol-4-yl)phenyl)-4-fluoro-6-methoxyspiro[indoline-2,3′-pyrrolidin]-2′-one] had an IC50 of 300 to 2000 nM.

Consider `O=C1N(c2ccc(-c3cn[nH]c3)cc2)CCC12Cc1ccc(F)cc1C2` (single isomer, unassigned) [Example 16, 1′-(4-(1H-Pyrazol-4-yl)phenyl)-5-fluoro-1,3-dihydrospiro[indene-2,3′-pyrrolidin]-2′-one], for which the half-maximal inhibitory concentration (IC50) lay in the range of 3 to 30 nM.

Consider `O=C1N(c2ccc(-c3cn[nH]c3)cc2)CCC12CCc1ccccc1O2` (stereo not drawn) [Example 50, 1′-(4-(1H-pyrazol-4-yl)phenyl)spiro[chromane-2,3′-pyrrolidin]-2′-one], for which the IC50 lay in the range of 30 to 300 nM.

As for `O=C1N(c2ccc(-c3cn[nH]c3)cn2)CCC12Cc1ccccc1N2` (stereo not drawn) [Example 41, 1′-(5-(1H-Pyrazol-4-yl)pyridin-2-yl)spiro[indoline-2,3′-pyrrolidin]-2′-one], the IC50 was in the range of 3 to 30 nM.

In the case of `CC(C)(O)COc1ccc2c(c1)NC1(CCN(c3ccc(-c4cn[nH]c4)cc3)C1=O)C2` (stereo not drawn) [Example 36], the IC50 fell in the range of 30 to 300 nM.

`O=C1N(c2ccc(-c3cn[nH]c3)cc2)CCC12Cc1ncccc1N2` (stereo not drawn) [Example 28, 1-(4-(1H-Pyrazol-4-yl)phenyl)-1′,3′-dihydrospiro[pyrrolidine-3,2′-pyrrolo[3,2-b]pyridin]-2-one]: the IC50 lay in the range of 30 to 300 nM.

`O=C1N(c2ccc(-c3cn[nH]c3)cc2)CC(CO)[C@@]12Cc1ccccc1N2` (stereo partly drawn) [Example 54, (2S)-1′-(4-(1H-pyrazol-4-yl)phenyl)-4′-(hydroxymethyl)spiro[indoline-2,3′-pyrrolidin]-2′-one]: the IC50 was less than 3 nM.

For `COc1ccc2c(c1)NC1(CCN(c3ccc(-c4cn[nH]c4)cc3)C1=O)C2` (single isomer, unassigned) [Example 5, 1′-(4-(1H-Pyrazol-4-yl)phenyl)-6-methoxyspiro[indoline-2,3′-pyrrolidin]-2′-one], the half-inhibitory concentration (IC50) was less than 3 nM.

With `COc1nc(N2CCC3(Cc4ccccc4N3)C2=O)ccc1-c1cn[nH]c1` (stereo not drawn) [Example 10, 1′-(6-methoxy-5-(1H-pyrazol-4-yl)pyridin-2-yl)spiro[indoline-2,3′-pyrrolidin]-2′-one], the IC50 was less than 3 nM.

Molecule `O=C1N(c2ccc(-c3ccc4[nH]ncc4c3)cc2)CCC12Cc1ccccc1N2` (stereo not drawn) [Example 13, 1′-(4-(1H-Indazol-5-yl)phenyl)spiro[indoline-2,3′-pyrrolidin]-2′-one] returned an IC50 of 3 to 30 nM.

Molecule `COc1ccc2c(c1)CC1(CCN(c3ccc(-c4cn[nH]c4)c(OC)n3)C1=O)C2` (single isomer, unassigned) [Example 19, 5-Methoxy-1′-(6-methoxy-5-(1H-pyrazol-4-yl)pyridin-2-yl)-1,3-dihydrospiro[indene-2,3′-pyrrolidin]-2′-one] returned an IC50 of 300 to 2000 nM.

Molecule `O=C1N(c2ccc(-c3cn[nH]c3)cc2)CCC12Cc1ccccc1O2` (single isomer, unassigned) [Example 30, 1′-(4-(1H-Pyrazol-4-yl)phenyl)-3H-spiro[benzofuran-2,3′-pyrrolidin]-2′-one] displayed an IC50 of 30 to 300 nM.

Regarding `O=C1N(c2ccc(-c3cn[nH]c3)cc2)CCC12Cc1cc(F)ccc1N2` (single isomer, unassigned) [Example 8, 1′-(4-(1H-Pyrazol-4-yl)phenyl)-5-fluorospiro[indoline-2,3′-pyrrolidin]-2′-one], the IC50 is 3 to 30 nM.

Molecule `O=C1N(c2ccc(-c3cn[nH]c3)cc2)CC(CO)[C@]12Cc1ccccc1N2` (stereo partly drawn) [Example 55, (2R)-1′-(4-(1H-pyrazol-4-yl)phenyl)-4′-(hydroxymethyl)spiro[indoline-2,3′-pyrrolidin]-2′-one] returned a 50% inhibitory concentration (IC50) of 30 to 300 nM.
